These are literature values, as cited in US20190133115A1, “PESTICIDAL SOLUBLE MICRO-EMULSION CONCENTRATE SEED TREATMENT FORMULATIONS” (priority 2017, published 2019).

The conditions of the series: in alcohols, e.g., ethanol, acetone, and toluene.

Consider `COCC(=O)N(c1c(C)cccc1C)C(C)C(=O)OC` (racemic) [Metalaxyl, methyl N-(methoxyacetyl)-N-(2,6-xylyl)-DL-alanate], for which the solubility result is on record as “soluble”.
